For 36 compounds, IC50 results are on record in patent US20160083391A1, “TRICYCLIC PIPERAZINE DERIVATIVE” (Sunovion Pharmaceuticals Inc., priority 2014, published 2016).

Each structure is given as a SMILES string.

This experiment deals with PDE1. In words: In vitro HTRF PDE1 inhibition assay. The format is biochemical. The conditions noted are these: HTRF cGMP assay, 100 nM cyclic GMP, PDE (1A3, 1B or 1C) with calmodulin, 45 minutes at 37° C.; isoform of the tabulated values not stated. The gist of the method:
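Activities are given as IC50 bands (<1, 1-10, >10 μM) derived from a 665/615 nm time-resolved FRET readout after d2-cGMP/anti-cGMP cryptate detection. Enzymes PDE1A3, 1B or 1C plus calmodulin were incubated 45 min at 37 °C with 100 nM cGMP, 1% DMSO, CaCl2/MgCl2 Tris buffer pH 7.4.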
`CCC1Cn2c(nc3c(cnn3C(C)C)c2=O)CN1c1ccc(Cl)cc1` (racemic) [Compound I-155, (±)-8-(4-Chlorophenyl)-7-ethyl-1-isopropyl-6,7,8,9-tetrahydropyrazino[1,2-a]pyrazolo[3,4-d]pyrimidin-4(1H)-one] yielded an IC50 of 1000 to 10000 nM.

Turning to `O=c1n2c(nc3c(C4CCCC4)ncn13)CN(Cc1ccc(Cl)cc1)CC2` [Compound I-258, 6-(4-Chlorobenzyl)-3-cyclopentyl-7,8-dihydro-5H-imidazo[1,5-a]pyrazino[2,1-d][1,3,5]triazin-10(6H)-one], the IC50 was less than 1000 nM.

The compound `O=c1c2cnc(C3CCCC3)n2nc2n1CCN(c1ccc(F)cc1)C2` [Compound I-183, 3-Cyclopentyl-7-(4-fluorophenyl)-8,9-dihydro-6H-imidazo[5,1-f]pyrazino[2,1-c][1,2,4]triazin-11(7H)-one] came in with an IC50 of less than 1000 nM.

The compound `O=c1c2cnc(C3CCCC3)n2nc2n1CCN(c1ccc(Cl)cc1)C2` [Compound I-182, 7-(4-Chlorophenyl)-3-cyclopentyl-8,9-dihydro-6H-imidazo[5,1-f]pyrazino[2,1-c][1,2,4]triazin-11(7H)-one] showed an IC50 of less than 1000 nM.

Consider `O=c1c2cnn(C3CCCC3)c2nc2n1CCN(Cc1ccccc1Cl)C2` [Compound I-69, 8-(2-Chlorobenzyl)-1-cyclopentyl-6,7,8,9-tetrahydropyrazino[1,2-a]pyrazolo[3,4-d]pyrimidin-4(1H)-one], for which the IC50 is less than 1000 nM.

For the compound `O=c1c2c(Nc3ccccc3)n(Cc3ccccc3)nc2nc2n1CCNC2` [Compound I-59, 2-Benzyl-3-(phenylamino)-6,7,8,9-tetrahydropyrazino[1,2-a]pyrazolo[3,4-d]pyrimidin-4(2H)-one], the IC50 was more than 10000 nM.

The compound `CC(C)c1nn(C)c2c(=O)n3c(nc12)CNCC3` [Compound I-13, 3-Isopropyl-1-methyl-5,6,7,8-tetrahydropyrazino[1,2-a]pyrazolo[4,3-d]pyrimidin-10(1H)-one] displayed an IC50 of more than 10000 nM.

Compound `CCCn1ncc2c(=O)n3c(nc21)CN(Cc1ccc(Cl)cc1)CC3` [Compound I-253, 8-(4-Chlorobenzyl)-1-propyl-6,7,8,9-tetrahydropyrazino[1,2-a]pyrazolo[3,4-d]pyrimidin-4(1H)-one] gave a half-inhibitory concentration (IC50) of 1000 to 10000 nM.

Compound `Cc1cnc(CN2CCn3c(nn4c(C5CCCC5)ncc4c3=O)C2)nc1` [Compound I-201] showed an IC50 of 1000 to 10000 nM.

The compound `O=c1c2cnn(C3CCOC3)c2nc2n1CCN(c1ccccc1)C2` (racemic) [Compound I-216, (±)-8-Phenyl-1-(tetrahydrofuran-3-yl)-6,7,8,9-tetrahydropyrazino[1,2-a]pyrazolo[3,4-d]pyrimidin-4(1H)-one] registered an IC50 of 1000 to 10000 nM.

`O=c1c2cnn(C3CCOC3)c2nc2n1CCN(Cc1ccccc1)C2` (racemic) [Compound I-218, (±)-8-Benzyl-1-(tetrahydrofuran-3-yl)-6,7,8,9-tetrahydropyrazino[1,2-a]pyrazolo[3,4-d]pyrimidin-4(1H)-one] displayed an IC50 of 1000 to 10000 nM.

For the compound `CC(C)Cn1ncc2c(=O)n3c(nc21)CN(Cc1ccccc1)CC3` [Compound I-51, 8-Benzyl-1-isobutyl-6,7,8,9-tetrahydropyrazino[1,2-a]pyrazolo[3,4-d]pyrimidin-4(1H)-one], the IC50 fell in the range of 1000 to 10000 nM.

`O=c1c2cnn(C3CCCC3)c2nc2n1CCN(Cc1ccc(Cl)cc1)C2` [Compound I-75, 8-(4-Chlorobenzyl)-1-cyclopentyl-6,7,8,9-tetrahydropyrazino[1,2-a]pyrazolo[3,4-d]pyrimidin-4(1H)-one] yielded an IC50 of less than 1000 nM.

For `CC(C)c1ncc2c(=O)n3c(nn12)CN(c1ccc(C(F)(F)F)cc1)CC3` [Compound I-240], the IC50 was less than 1000 nM.

As for `CC(C)(C)n1ncc2c(=O)n3c(nc21)CN(c1ccc(Cl)cc1)CC3` [Compound I-247, 1-(tert-Butyl)-8-(4-chlorophenyl)-6,7,8,9-tetrahydropyrazino[1,2-a]pyrazolo[3,4-d]pyrimidin-4(1H)-one], the IC50 fell in the range of 1000 to 10000 nM.

`CCC1Cn2c(nc3c(cnn3C(C)C)c2=O)CN1Cc1ccc(OC)cc1` (racemic) [Compound I-153, (±)-7-Ethyl-1-isopropyl-8-(4-methoxybenzyl)-6,7,8,9-tetrahydropyrazino[1,2-a]pyrazolo[3,4-a]pyrimidin-4(1H)-one]: the IC50 fell in the range of 1000 to 10000 nM.

`CC(C)n1ncc2c(=O)n3c(nc21)CN(c1ccncc1)CC3` [Compound I-145, 1-Isopropyl-8-(pyridin-4-yl)-6,7,8,9-tetrahydropyrazino[1,2-a]pyrazolo[3,4-d]pyrimidin-4(1H)-one] came in with an IC50 of less than 1000 nM.

For the compound `CC(C)c1ncc2c(=O)n3c(nn12)CN(c1ccc(F)cc1)CC3` [Compound I-176, 7-(4-Fluorophenyl)-3-isopropyl-8,9-dihydro-6H-imidazo[5,1-f]pyrazino[2,1-c][1,2,4]triazin-11(7H)-one], the IC50 is less than 1000 nM.

`COc1ccc(CN2CCn3c(nc4c(cnn4CC(C)C)c3=O)C2)cc1` [Compound I-83, 1-Isobutyl-8-(4-methoxybenzyl)-6,7,8,9-tetrahydropyrazino[1,2-a]pyrazolo[3,4-d]pyrimidin-4(1H)-one] displayed an IC50 of less than 1000 nM.

`CC(C)n1ncc2c(=O)n3c(nc21)CN(c1ccc(C(F)(F)F)cc1)CC3` [Compound I-239, 1-Isopropyl-8-(4-(trifluoromethyl)phenyl)-6,7,8,9-tetrahydropyrazino[1,2-a]pyrazolo[3,4-d]pyrimidin-4(1H)-one] had an IC50 of less than 1000 nM.

Compound `CC(C)c1nnc2c(=O)n3c(nn12)CN(Cc1ccc(Cl)cc1)CC3` [Compound I-221, 7-(4-Chlorobenzyl)-3-isopropyl-8,9-dihydro-6H-pyrazino[2,1-c][1,2,4]triazolo[3,4-f][1,2,4]triazin-11(7H)-one] yielded a 50% inhibitory concentration (IC50) of 1000 to 10000 nM.

Regarding `CCCn1ncc2c(=O)n3c(nc21)CN(Cc1cccc(Cl)c1)CC3` [Compound I-166, 8-(3-Chlorobenzyl)-1-propyl-6,7,8,9-tetrahydropyrazino[1,2-a]pyrazolo[3,4-d]pyrimidin-4(1H)-one], the IC50 is 1000 to 10000 nM.

In turn, `O=c1c2cnc(C3CCOCC3)n2nc2n1CCN(c1ccc(Cl)cc1)C2` [Compound I-236, 7-(4-Chlorophenyl)-3-(tetrahydro-2H-pyran-4-yl)-8,9-dihydro-6H-imidazo[5,1-f]pyrazino[2,1-c][1,2,4]triazin-11(7H)-one] yielded an IC50 of less than 1000 nM.

In turn, `COc1ccccc1CN1CCn2c(nc3c(cnn3CC(C)C)c2=O)C1` [Compound I-77, 1-Isobutyl-8-(2-methoxybenzyl)-6,7,8,9-tetrahydropyrazino[1,2-a]pyrazolo[3,4-d]pyrimidin-4(1H)-one] came in with an IC50 of 1000 to 10000 nM.

As to `O=c1c2cnn(-c3ccccc3)c2nc2n1CCN(Cc1ccccc1)C2` [Compound I-30, 8-Benzyl-1-phenyl-6,7,8,9-tetrahydropyrazino[1,2-a]pyrazolo[3,4-d]pyrimidin-4(1H)-one], the IC50 is more than 10000 nM.

For the compound `CC(C)n1ncc2c(=O)n3c(nc21)CN(c1cccnc1)CC3` [Compound I-143, 1-Isopropyl-8-(pyridin-3-yl)-6,7,8,9-tetrahydropyrazino[1,2-a]pyrazolo[3,4-d]pyrimidin-4(1H)-one], the IC50 was in the range of 1000 to 10000 nM.

Compound `COc1ccc(CN2CCn3c(nn4c(C5CCCC5)ncc4c3=O)C2)cc1` [Compound I-133, 3-Cyclopentyl-7-(4-methoxybenzyl)-8,9-dihydro-6H-imidazo[5,1-f]pyrazino[2,1-c][1,2,4]triazin-11(7H)-one] gave an IC50 of less than 1000 nM.

For the compound `CN1CCn2c(nc3[nH]ncc3c2=O)C1Cc1ccccc1` (racemic) [Compound I-23, (±)-9-Benzyl-8-methyl-6,7,8,9-tetrahydropyrazino[1,2-a]pyrazolo[3,4-d]pyrimidin-4(1H)-one], the IC50 was more than 10000 nM.

Turning to `CC(C)n1ncc2c(=O)n3c(nc21)CN(c1ccccc1)CC3` [Compound I-55, 1-Isopropyl-8-phenyl-6,7,8,9-tetrahydropyrazino[1,2-a]pyrazolo[3,4-d]pyrimidin-4(1H)-one], the IC50 lay within 1000 to 10000 nM.

In turn, `Cc1ncc(CN2CCn3c(nc4c(cnn4C(C)C)c3=O)C2)cn1` [Compound I-194, 1-Isopropyl-8-((2-methylpyrimidin-5-yl)methyl)-6,7,8,9-tetrahydropyrazino[1,2-a]pyrazolo[3,4-d]pyrimidin-4(1H)-one] showed an IC50 of more than 10000 nM.

`CN1CCn2c(nc3[nH]nc(Nc4ccccc4)c3c2=O)C1` [Compound I-49, 8-Methyl-3-(phenylamino)-6,7,8,9-tetrahydropyrazino[1,2-a]pyrazolo[3,4-d]pyrimidin-4(1H)-one] yielded an IC50 of more than 10000 nM.

Turning to `CC(C)c1nn(C)c2c(=O)n3c(nc12)C(C)N(C)CC3` (racemic) [Compound I-41, (±)-3-Isopropyl-1,5,6-trimethyl-5,6,7,8-tetrahydropyrazino[1,2-a]pyrazolo[4,3-d]pyrimidin-10(1H)-one], the IC50 was more than 10000 nM.

Regarding `CC(C)Cn1ncc2c(=O)n3c(nc21)CN(c1ccccc1Cl)CC3` [Compound I-86, 8-(2-Chlorophenyl)-1-isobutyl-6,7,8,9-tetrahydropyrazino[1,2-a]pyrazolo[3,4-d]pyrimidin-4(1H)-one], the IC50 lay in the range of 1000 to 10000 nM.

In turn, `CC(C)c1nn(C)c2c(=O)n3c(nc12)C(Cc1ccccc1)NCC3` (racemic) [Compound I-15, (±)-5-Benzyl-3-isopropyl-1-methyl-5,6,7,8-tetrahydropyrazino[1,2-a]pyrazolo[4,3-d]pyrimidin-10(1H)-one] yielded a half-inhibitory concentration (IC50) of more than 10000 nM.

The compound `COCCn1ncc2c(=O)n3c(nc21)CN(c1ccc(Cl)c(Cl)c1)CC3` [Compound I-257, 8-(3,4-Dichlorophenyl)-1-(2-methoxyethyl)-6,7,8,9-tetrahydropyrazino[1,2-a]pyrazolo[3,4-d]pyrimidin-4(1H)-one] showed an IC50 of 1000 to 10000 nM.

In turn, `CC(C)c1ncc2c(=O)n3c(nn12)CN(c1ccc(Cl)cn1)CC3` [Compound I-242, 7-(5-Chloropyridin-2-yl)-3-isopropyl-8,9-dihydro-6H-imidazo[5,1-f]pyrazino[2,1-c][1,2,4]triazin-11(7H)-one] yielded an IC50 of less than 1000 nM.
